Source: patent publication US7589123B2, “Chemical compounds” (Phytopharm PLC, priority 2006, dated 2009)

Tests used:
[1] = molecular target: T1, TRPV1 receptor (Rattus norvegicus, UniProt O35433); assay: TRPV1 receptor modulation in the rat vas deferens, EFS-induced contraction (Assay 1); settings: electrical field stimulation, read-out: Inhibition of EFS response relative to capsaicin
Description: Wistar derived male rats (275±25 g) were suppressed by CO2 overexposure. The vas deferens was removed, placed in Krebs solution, pH 7.4 (composition in g/l: NaCl 6.89, KCl 0.35, CaCl2 0.277, KH2PO4 0.163, MgSO4.7H2O 0.296, NaHCO3 2.1 glucose 1.8) and excess fat and connective tissue removed. The portion of the vas deferens closest to the prostate was cut in half and each half was placed under 1 g tension in a 10 ml bath containing Krebs solution at 32° C. The tissue was contracted by electrical field stimulation (EFS; 60% of maximum stimulation, 0.015 Hz, 0.5 ms in duration) and contractile responses were measured.

[2] = tested on: histamine-induced contractions in guinea pig ileum; assay: Inhibition of histamine-induced contractions in guinea pig ileum (Assay 3); settings: Cavia porcellus, histamine 1.7 μM, read-out: Inhibition of histamine-induced contraction (%)
Summary of the method: (§1)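 Ileal strips from male Duncan Hartley guinea pigs were held at 1 g tension in 32° C oxygenated Krebs (pH 7.4) with isotonic transducers. After control contractions to 5-HT (2.6 μM) or histamine (1.7 μM), compound at 3 and 30 μM was added, its own effect noted, and agonist re-applied.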

[3] = tested on: 5-HT-induced contractions in guinea pig ileum; assay: Inhibition of 5-HT-induced contractions in guinea pig ileum (Assay 3); settings: Cavia porcellus, 5-HT 2.6 μM, read-out: Inhibition of 5-HT-induced contraction (%)
Summary of the method: as §1

[4] = tested on: α-smooth muscle actin (α-SMA) mRNA; assay: Anti-remodelling activity in human lung fibroblasts (HFL1): TGFβ-induced α-SMA mRNA (Assay 4); type: cell-based; settings: Homo sapiens, HFL1 cells, TGFβ 10 ng/ml, 24 h, read-out: Inhibition of α-SMA mRNA synthesis (%)
Summary of the method: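 Real-time RT-PCR of α-SMA mRNA, GAPDH as reference, measured after 24 h exposure of low-serum-primed HFL1 cells to 10 ng/ml TGFβ with test compounds (3 and 30 μM) in 10% FBS medium. Readout is inhibition of TGFβ-driven α-SMA mRNA overexpression.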

[5] = tested on: IL-1α-induced PGE2 release; assay: IL-1α-induced PGE2 release in human diploid lung fibroblasts (WI-38) (Assay 5); type: cell-based; settings: Homo sapiens, WI-38 cells, IL-1α 1 nM, overnight
Summary of the method: (§2)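 Cell viability was read by Alamar Blue fluorescence (530/590 nm) after 4 h at 37 °C, following an overnight 37 °C incubation of human lung fibroblasts with 1 nM IL-1α and compound (3 or 30 μM) in 10% FBS MEM, pH 7.3. Supernatant PGE2 was measured by radioimmunoassay to derive percent inhibition.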

[6] = tested on: WI-38 cells; assay: Viability of WI-38 cells, Alamar Blue (Assay 5); type: cell-based, human
Summary of the method: as §2

[7] = molecular target: T2, 5-lipoxygenase (Homo sapiens, UniProt P09917); assay: 5-lipoxygenase activity (LTB4) in human peripheral blood mononuclear leukocytes (Assay 6); type: cell-based; settings: human PBMLs, A23187 30 μM, read-out: Inhibition of 5-LO (%)
T2 construct: endogenous in cells; host or cells: human peripheral blood mononuclear leukocytes (PBMLs)
T2 sequence (P09917 1-674): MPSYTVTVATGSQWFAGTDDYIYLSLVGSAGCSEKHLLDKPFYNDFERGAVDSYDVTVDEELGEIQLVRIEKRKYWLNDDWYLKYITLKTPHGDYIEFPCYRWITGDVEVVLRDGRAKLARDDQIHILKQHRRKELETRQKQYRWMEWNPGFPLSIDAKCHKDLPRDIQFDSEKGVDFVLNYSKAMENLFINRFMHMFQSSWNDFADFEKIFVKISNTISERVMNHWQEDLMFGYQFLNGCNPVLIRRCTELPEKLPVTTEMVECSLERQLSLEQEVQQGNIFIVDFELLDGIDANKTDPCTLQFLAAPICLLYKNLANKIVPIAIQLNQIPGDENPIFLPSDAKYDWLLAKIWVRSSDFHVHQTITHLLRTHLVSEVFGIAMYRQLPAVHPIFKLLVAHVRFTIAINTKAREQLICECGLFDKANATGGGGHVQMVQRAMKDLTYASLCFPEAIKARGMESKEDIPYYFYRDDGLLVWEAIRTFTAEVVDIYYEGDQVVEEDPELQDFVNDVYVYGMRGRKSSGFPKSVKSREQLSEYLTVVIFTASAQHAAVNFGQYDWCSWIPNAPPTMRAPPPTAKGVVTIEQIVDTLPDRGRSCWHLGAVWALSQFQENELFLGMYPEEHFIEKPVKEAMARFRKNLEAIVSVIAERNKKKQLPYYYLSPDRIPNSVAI
Summary of the method: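 LTB4 in supernatant quantified by EIA after 15 min at 37° C. in HBSS, pH 7.4, where Ficoll-isolated human PBMLs (5×10^6) received ionophore A23187 (30 μM) and test compound (3 and 30 μM) or 0.1% DMSO vehicle.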

[8] = molecular target: T1, TRPV1 receptor; assay: TRPV1 modulation in DRG neurones: CGRP release in absence and presence of capsaicin (Assay 2); type: cell-based; parameters: The culture used for this experiment contained sensory neurones, Schwann cells and fibroblasts; endogenous in cells; host or cells: primary rat DRG sensory neurone culture (with Schwann cells and fibroblasts); settings: 20 min; for inhibition at 3 µM: 3 μM with capsaicin 1 μM; for inhibition at 3 µM / inhibition at 30 µM: −ve: inhibition, +ve: potentiation of capsaicin response, read-out: Effect of test compounds on capsaicin (1 μM)-induced CGRP release (%); for inhibition at 30 µM: 30 μM with capsaicin 1 μM; for Emax at 3 µM: test compound alone 3 μM; for Emax at 3 µM / Emax at 30 µM: rat DRG sensory neurones, read-out: CGRP release (% of capsaicin (1 μM) response); for Emax at 30 µM: test compound alone 30 μM

T1 sequence (O35433 whole entry): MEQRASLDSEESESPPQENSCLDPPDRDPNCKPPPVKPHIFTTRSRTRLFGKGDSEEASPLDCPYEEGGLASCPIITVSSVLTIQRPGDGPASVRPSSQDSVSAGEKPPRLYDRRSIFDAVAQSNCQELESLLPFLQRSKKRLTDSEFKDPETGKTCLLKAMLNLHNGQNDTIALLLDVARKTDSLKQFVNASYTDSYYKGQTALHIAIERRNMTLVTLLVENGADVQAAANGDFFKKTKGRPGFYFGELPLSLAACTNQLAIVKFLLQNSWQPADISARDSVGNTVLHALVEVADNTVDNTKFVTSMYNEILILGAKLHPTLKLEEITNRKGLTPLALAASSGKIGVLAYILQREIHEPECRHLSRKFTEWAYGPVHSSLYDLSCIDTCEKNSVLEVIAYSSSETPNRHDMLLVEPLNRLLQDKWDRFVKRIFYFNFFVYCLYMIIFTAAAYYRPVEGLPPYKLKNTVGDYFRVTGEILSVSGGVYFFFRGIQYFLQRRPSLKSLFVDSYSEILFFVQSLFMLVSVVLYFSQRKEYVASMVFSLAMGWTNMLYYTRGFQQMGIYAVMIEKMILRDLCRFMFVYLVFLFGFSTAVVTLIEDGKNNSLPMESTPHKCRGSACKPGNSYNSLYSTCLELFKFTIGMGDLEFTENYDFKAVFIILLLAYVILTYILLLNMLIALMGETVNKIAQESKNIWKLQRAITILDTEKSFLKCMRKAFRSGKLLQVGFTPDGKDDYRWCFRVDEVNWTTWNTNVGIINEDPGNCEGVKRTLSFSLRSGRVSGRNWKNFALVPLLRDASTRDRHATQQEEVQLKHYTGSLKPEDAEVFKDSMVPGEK

## COc1cc(CCC(=O)CC(=O)CC(C)(C)C)ccc1O [Compound 3, 7,7-Dimethyl-1-(4-hydroxy-3-methoxyphenyl)-octane-3,5-dione]
[1]
  Emax: 63%

## COc1cc(CCC(=O)CC(=O)C2(C)CCCCC2)ccc1O [Compound 10, 5-(4-Hydroxy-3-methoxy-phenyl)-1-(1-methyl-cyclohexyl)-pentane-1,3-dione]
[1]
  Emax: 16%

## COc1cc(/C=C/C(=O)CC(=O)C2(C)CC2)ccc1O [Compound 38, (E)-5-(4-Hydroxy-3-methoxylphenyl)-1-(1-methylcyclopropyl)-pent-4-ene-1,3-dione]
[1]
  Emax: -36%
other
  melting point: 78 to 80 °C

## COc1cc(CCC(=O)CC(=O)c2ccc(-c3ccccc3)cc2)ccc1O [Compound 18, 1-(Biphenyl-4-yl)-5-(4-hydroxy-3-methoxyphenyl)-pentane-1,3-dione]
[2]
  inhibition at 3 µM: 0%
  inhibition at 30 µM: 7%
[3]
  inhibition at 3 µM: 0%
  inhibition at 30 µM: 3%
[4]
  inhibition at 3 µM: 13%
  inhibition at 30 µM: 79%
[5]
  inhibition at 3 µM: 86%
  inhibition at 30 µM: 99%
[6]; 3 μM
  Decrease in cell viability (%): 3%
[6]; 30 μM
  Decrease in cell viability (%): 15%
[7]
  inhibition at 3 µM: 58%
  inhibition at 30 µM: 94%
other
  melting point: 118 to 119 °C
[8]
  inhibition at 3 µM: 10%
  inhibition at 30 µM: -12%
  Emax at 3 µM: 146%
  Emax at 30 µM: 146%

## COc1cc(/C=C/C(=O)CC(=O)C(C)C)ccc1O [Compound 33, (E)-1-(4-Hydroxy-3-methoxyphenyl)-6-methyl-hept-1-ene-3,5-dione]
[1]
  Emax: -12%

## COc1cc(CCC(=O)CC(=O)c2ccc3ccccc3c2)ccc1O [Compound 26, 5-(4-Hydroxy-3-methoxyphenyl)-1-(naphthalene-2-yl)-pentane-1,3-dione]
[2]
  inhibition at 3 µM: 3%
  inhibition at 30 µM: 34%
[3]
  inhibition at 3 µM: 7%
  inhibition at 30 µM: 40%
[4]
  inhibition at 3 µM: 2%
  inhibition at 30 µM: 64%
[5]
  inhibition at 3 µM: 81%
  inhibition at 30 µM: 100%
[6]; 3 μM
  Decrease in cell viability (%): 3%
[6]; 30 μM
  Decrease in cell viability (%): 10%
[7]
  inhibition at 3 µM: 60%
  inhibition at 30 µM: 98%
other
  melting point: 101 to 102 °C
[8]
  inhibition at 3 µM: 47%
  inhibition at 30 µM: -31%
  Emax at 3 µM: 66%
  Emax at 30 µM: 248%

## COc1cc(/C=C/C(=O)CC(=O)c2ccccc2)ccc1O [Compound 68, (E)-5-(4-Hydroxy-3-methoxyphenyl)-1-phenyl-pent-4-ene-1,3-dione]
[1]
  Emax: 14%
other
  melting point: 159 to 161.5 °C

## COc1cc(/C=C/C(=O)CC(=O)C2CCCC2)ccc1O [Compound 40, (E)-1-Cyclopentyl-5-(4-hydroxy-3-methoxyphenyl)-pent-4-ene-1,3-dione]
[1]
  Emax: -82%

## COc1cc(/C=C/C(=O)CC(=O)C2(C)CCCCC2)ccc1O [Compound 42, (E)-5-(4-Hydroxy-3-methoxyphenyl)-1-(1-methylcyclohexyl)-pent-4-ene-1,3-dione]
[1]
  Emax: 6%

## COc1cc(/C=C/C(=O)C(C)C(=O)c2ccccc2)ccc1O (centres unmarked) [Compound 43, (E)-5-(4-Hydroxy-3-methoxyphenyl)-2-methyl-1-phenyl-pent-4-ene-1,3-dione]
[1]
  Emax: -13%

## COc1cc(/C=C/C(=O)CC(=O)C(C)(C)C)ccc1O [Compound 34, (E)-1-(4-Hydroxy-3-methoxylphenyl)-6,6-dimethyl-hept-1-ene-3,5-dione]
[1]
  Emax: -15%
[2]
  inhibition at 3 µM: 11%
  inhibition at 30 µM: 22%
[3]
  inhibition at 3 µM: 2%
  inhibition at 30 µM: 43%
[5]
  inhibition at 3 µM: 72%
  inhibition at 30 µM: 109%
[6]; 3 μM
  Decrease in cell viability (%): 3%
[6]; 30 μM
  Decrease in cell viability (%): 5%

## COc1cc(/C=C/C(=O)CC(=O)CC(C)(C)C)ccc1O [Compound 35, (E)-7,7-Dimethyl-1-(4-hydroxy-3-methoxyphenyl)-oct-1-ene-3,5-dione]
[1]
  Emax: 25%
other
  melting point: 130 to 132 °C

## COc1cc(CCC(=O)CC(=O)C2CCCC2)ccc1O [Compound 8, 1-Cyclopentyl-5-(4-hydroxy-3-methoxyphenyl)-pentane-1,3-dione]
[1]
  Emax: 36%
